According to patent US20060194766A1, “Combinations comprising anti-epileptic drugs for the treatment of neurological disorders” (priority 2003, published 2006):

System: MES-induced seizures
Assay: Maximal electroshock test (MES)-induced seizures in mice
Type: in vivo
Details: for % animals protected from seizures: pre-treatment 1 h
Method: Generalized tonic-clonic seizures are induced in mice by a maximal electroshock test (MES). In brief, seizures of the hind extremities of male Tif: MAGf (SPF) mice (19-25 g) are induced by passing alternating electrical current (50 Hz, 18 mA, 0.2 s) through temporal electrodes. The compounds and carbamazepine are suspended in 0.5% methyl cellulose for p.o. administration (doses for the compounds: 3.125, 6.25, 12.5 and 20.0 mg/kg p.o). The pre-treatment period for all compounds is 1 h. Ten animals per dose are used. For each experiment one group serves as a negative control (placebo). The number of animals protected from tonic hind limb extension seizure is determined in each dose and combination group.

In the case of `NC(=O)N1c2ccccc2C=Cc2ccccc21` [Carbamazepine], the “% animals protected from seizures” value (Carbamazepine 7.5 mg/kg combined with Compound 1, 3.125 mg/kg p.o.) was 40%, the “% animals protected from seizures” value (Carbamazepine 7.5 mg/kg p.o. combined with placebo) was 0% and the “% animals protected from seizures” value (Carbamazepine 12.5 mg/kg combined with Compound 1, 3.125 mg/kg p.o.) was 80%. The “% animals protected from seizures” value (Carbamazepine 12.5 mg/kg combined with Compound 1, 6.25 mg/kg p.o.) was 90%, the “% animals protected from seizures” value (Carbamazepine 20.0 mg/kg combined with Compound 1, 6.25 mg/kg p.o.) was 100% and the “% animals protected from seizures” value (Carbamazepine 20.0 mg/kg p.o. combined with placebo) was 80%. For the same molecule, the “% of the mice protected” value (carbamazepine combined with placebo, doses of 7.5 to 20.0 mg/kg p.o.) was “up to 80%”.
